Assay results reported in ChEMBL document CHEMBL4715829, “Heterodimeric Rifampicin-Tobramycin conjugates break intrinsic resistance of Pseudomonas aeruginosa to doxycycline and chloramphenicol in vitro and in a Galleria mellonella in vivo model” (Eur J Med Chem, 2019).
Values after ≈ are worked out from the molar mass of the structure shown.

Legend:
Pseudomonas aeruginosa [1] = assay: Antibacterial activity against Pseudomonas aeruginosa 262-101856 assessed as reduction in bacterial growth incubated for 18 hrs by broth microdilution assay; format: functional
Staphylococcus aureus = assay: Antibacterial activity against methicillin-resistance Staphylococcus aureus ATCC 33592 assessed as reduction in bacterial growth incubated for 18 hrs by broth microdilution assay; format: functional
Escherichia coli [2] = assay: Antibacterial activity against Escherichia coli ATCC 25922 assessed as reduction in bacterial growth incubated for 18 hrs by broth microdilution assay; format: functional
Pseudomonas aeruginosa [3] = assay: Antibacterial activity against Pseudomonas aeruginosa 91433 assessed as reduction in bacterial growth incubated for 18 hrs by broth microdilution assay; format: functional
Streptococcus pneumoniae = assay: Antibacterial activity against Streptococcus pneumoniae ATCC 49619 assessed as reduction in bacterial growth incubated for 18 hrs by broth microdilution assay; format: functional
Escherichia coli [4] = assay: Antibacterial activity against gentamicin-resistant Escherichia coli CAN-ICU 61714 assessed as reduction in bacterial growth incubated for 18 hrs by broth microdilution assay; format: functional
Pseudomonas aeruginosa [5] = assay: Antibacterial activity against Pseudomonas aeruginosa ATCC 27853 assessed as reduction in bacterial growth incubated for 18 hrs by broth microdilution assay; format: functional
Pseudomonas aeruginosa [6] = assay: Antibacterial activity against Pseudomonas aeruginosa 91433 assessed as fractional inhibitory concentration index in presence of doxycycline incubated for 18 hrs by broth microdilution assay; format: functional
Pseudomonas aeruginosa [7] = assay: Antibacterial activity against Pseudomonas aeruginosa 262-101856 assessed as fractional inhibitory concentration index in presence of doxycycline incubated for 18 hrs by broth microdilution assay; format: functional
Pseudomonas aeruginosa [8] = assay: Antibacterial activity against Pseudomonas aeruginosa 101243 assessed as fractional inhibitory concentration index in presence of doxycycline incubated for 18 hrs by broth microdilution assay; format: functional
[9] = test system: Stenotrophomonas maltophilia; assay: Antibacterial activity against Stenotrophomonas maltophilia CAN-ICU 62584 assessed as reduction in bacterial growth incubated for 18 hrs by broth microdilution assay; format: functional
Pseudomonas aeruginosa [10] = assay: Antibacterial activity against Pseudomonas aeruginosa 260-97103 assessed as fractional inhibitory concentration index in presence of doxycycline incubated for 18 hrs by broth microdilution assay; format: functional
Pseudomonas aeruginosa [11] = assay: Antibacterial activity against Pseudomonas aeruginosa 100036 assessed as fractional inhibitory concentration index in presence of doxycycline incubated for 18 hrs by broth microdilution assay; format: functional
Pseudomonas aeruginosa [12] = assay: Antibacterial activity against Pseudomonas aeruginosa 100036 assessed as reduction in bacterial growth incubated for 18 hrs by broth microdilution assay; format: functional
Pseudomonas aeruginosa [13] = assay: Antibacterial activity against Pseudomonas aeruginosa 264-101354 assessed as fractional inhibitory concentration index in presence of chloramphenicol incubated for 18 hrs by broth microdilution assay; format: functional
Pseudomonas aeruginosa [14] = assay: Antibacterial activity against Pseudomonas aeruginosa 264-101354 assessed as reduction in bacterial growth incubated for 18 hrs by broth microdilution assay; format: functional
Pseudomonas aeruginosa [15] = assay: Antibacterial activity against Pseudomonas aeruginosa 750 harboring efflux mutant assessed as reduction in bacterial growth incubated for 18 hrs by broth microdilution assay; format: functional
Enterococcus faecalis = assay: Antibacterial activity against Enterococcus faecalis ATCC 29212 assessed as reduction in bacterial growth incubated for 18 hrs by broth microdilution assay; format: functional
Escherichia coli [16] = assay: Antibacterial activity against Escherichia coli CAN-ICU 63074 (AMK 32) assessed as reduction in bacterial growth incubated for 18 hrs by broth microdilution assay; format: functional
Pseudomonas aeruginosa [17] = assay: Antibacterial activity against Pseudomonas aeruginosa PAO1 assessed as fractional inhibitory concentration index in presence of Minocycline incubated for 18 hrs by broth microdilution assay based checkerboard assay; format: functional
Pseudomonas aeruginosa [18] = assay: Antibacterial activity against Pseudomonas aeruginosa PAO1 assessed as fractional inhibitory concentration index in presence of Meropenem incubated for 18 hrs by broth microdilution assay based checkerboard assay; format: functional
Pseudomonas aeruginosa [19] = assay: Antibacterial activity against Pseudomonas aeruginosa PAO1 assessed as reduction in bacterial growth by measuring meropenem MIC at <=10 uM in presence of meropenem incubated for 18 hrs by broth microdilution assay based checkerboard assay (reference value: 1 microg/ml); format: functional; settings: dose microM <=10
Pseudomonas aeruginosa [20] = assay: Antibacterial activity against Pseudomonas aeruginosa PAO1 assessed as reduction in bacterial growth by measuring doxycycline MIC at <=[…] uM in presence of doxycycline incubated for 18 hrs by broth microdilution assay based checkerboard assay (reference value: […] microg/ml); format: functional; settings: dose microM <=10
Pseudomonas aeruginosa [21] = assay: Antibacterial activity against Pseudomonas aeruginosa PAO1 assessed as fractional inhibitory concentration index in presence of Rifampicin incubated for 18 hrs by broth microdilution assay based checkerboard assay; format: functional
Pseudomonas aeruginosa [22] = assay: Antibacterial activity against Pseudomonas aeruginosa PAO1 assessed as reduction in bacterial growth by measuring trimethoprim MIC at <=10 uM in presence of trimethoprim incubated for 18 hrs by broth microdilution assay based checkerboard assay (reference value: 64 microg/ml); format: functional; settings: dose microM <=10
Pseudomonas aeruginosa [23] = assay: Antibacterial activity against Pseudomonas aeruginosa PAO1 assessed as reduction in bacterial growth by measuring novobiocin MIC at <=10 uM in presence of novobiocin incubated for 18 hrs by broth microdilution assay based checkerboard assay (reference value: 512 microg/ml); format: functional; settings: dose microM <=10
Pseudomonas aeruginosa [24] = assay: Antibacterial activity against Pseudomonas aeruginosa PAO1 assessed as reduction in bacterial growth by measuring moxifloxacin MIC at <=10 uM in presence of moxifloxacin incubated for 18 hrs by broth microdilution assay based checkerboard assay (reference value: 1 microg/ml); format: functional; settings: dose microM <=10
Pseudomonas aeruginosa [25] = assay: Antibacterial activity against Pseudomonas aeruginosa PAO1 assessed as reduction in bacterial growth by measuring fosfomycin MIC at <=[…] uM in presence of fosfomycin incubated for 18 hrs by broth microdilution assay based checkerboard assay (reference value: […] microg/ml); format: functional; settings: dose microM <=10
Pseudomonas aeruginosa [26] = assay: Antibacterial activity against Pseudomonas aeruginosa PAO1 assessed as fractional inhibitory concentration index in presence of Vancomycin incubated for 18 hrs by broth microdilution assay based checkerboard assay; format: functional
Pseudomonas aeruginosa [27] = assay: Antibacterial activity against Pseudomonas aeruginosa PAO1 assessed as fractional inhibitory concentration index in presence of Linezolid incubated for 18 hrs by broth microdilution assay based checkerboard assay; format: functional
[28] = Cytotoxicity against human HepG2 cells assessed as cell viability at <10 uM incubated for 48 hrs prestoblue assay; format: cell-based; settings: read-out: Activity
Pseudomonas aeruginosa [29] = assay: Antibacterial activity against Pseudomonas aeruginosa PAO1 assessed as fractional inhibitory concentration index in presence of Tobramycin incubated for 18 hrs by broth microdilution assay based checkerboard assay; format: functional
Pseudomonas aeruginosa [30] = assay: Antibacterial activity against Pseudomonas aeruginosa PAO1 assessed as fractional inhibitory concentration index in presence of Aztreonam incubated for 18 hrs by broth microdilution assay based checkerboard assay; format: functional
Pseudomonas aeruginosa [31] = assay: Antibacterial activity against Pseudomonas aeruginosa PAO1 assessed as fractional inhibitory concentration index in presence of Trimethoprim incubated for 18 hrs by broth microdilution assay based checkerboard assay; format: functional
Pseudomonas aeruginosa [32] = assay: Antibacterial activity against Pseudomonas aeruginosa PAO1 assessed as reduction in bacterial growth by measuring colistin MIC at <=10 uM in presence of colistin incubated for 18 hrs by broth microdilution assay based checkerboard assay (reference value: 1 microg/ml); format: functional; settings: dose microM <=10
Pseudomonas aeruginosa [33] = assay: Antibacterial activity against Pseudomonas aeruginosa PAO1 assessed as reduction in bacterial growth by measuring aztreonam MIC at <=10 uM in presence of aztreonam incubated for 18 hrs by broth microdilution assay based checkerboard assay (reference value: 4 microg/ml); format: functional; settings: dose microM <=10
Pseudomonas aeruginosa [34] = assay: Antibacterial activity against Pseudomonas aeruginosa PAO1 assessed as fractional inhibitory concentration index in presence of Novobiocin incubated for 18 hrs by broth microdilution assay based checkerboard assay; format: functional

Row | Compound | MIC (Pseudomonas aeruginosa [1]) [µg/mL] | MIC (Staphylococcus aureus) [µg/mL] | MIC (Escherichia coli [2]) [µg/mL] | MIC (Pseudomonas aeruginosa [3]) [µg/mL] | MIC (Streptococcus pneumoniae) [µg/mL] | MIC (Escherichia coli [4]) [µg/mL] | MIC (Pseudomonas aeruginosa [5]) [µg/mL] | fractional inhibitory concentration index (FICI) (Pseudomonas aeruginosa [6]) | fractional inhibitory concentration index (FICI) (Pseudomonas aeruginosa [7]) | fractional inhibitory concentration index (FICI) (Pseudomonas aeruginosa [8]) | MIC [9] [µg/mL] | fractional inhibitory concentration index (FICI) (Pseudomonas aeruginosa [10]) | fractional inhibitory concentration index (FICI) (Pseudomonas aeruginosa [11]) | MIC (Pseudomonas aeruginosa [12]) [µg/mL] | fractional inhibitory concentration index (FICI) (Pseudomonas aeruginosa [13]) | MIC (Pseudomonas aeruginosa [14]) [µg/mL] | MIC (Pseudomonas aeruginosa [15]) [µg/mL] | MIC (Enterococcus faecalis) [µg/mL] | MIC (Escherichia coli [16]) [µg/mL] | fractional inhibitory concentration index (FICI) (Pseudomonas aeruginosa [17]) | also measured
1 | NC[C@H]1O[C@H](O[C@H]2[C@H](O)[C@@H](O[C@H]3O[C@H](CO)[C@@H](O)[C@H](N)[C@H]3O)[C@H](N)C[C@@H]2N)[C@H](N)C[C@@H]1O [TOBRAMYCIN] | 1020 (≈ 2190 µM) | 0.5 (≈ 1.07 µM) | 0.5 (≈ 1.07 µM) | 16 (≈ 34.2 µM) | 2 (≈ 4.28 µM) | 8 (≈ 17.1 µM) | 1 (≈ 2.14 µM) | 1.5 | <=1.5 | 1.5 | > 512 | 1.5 | 1.5 | 128 (≈ 274 µM) | 1 | 128 (≈ 274 µM) | 0.5 (≈ 1.07 µM) | 8 (≈ 17.1 µM) | 8 (≈ 17.1 µM) |  | 
2 | CO[C@H]1/C=C/O[C@@]2(C)Oc3c(C)c(O)c4c(O)c(c(/C=N/N5CCN(Cc6cn(CCCCCCO[C@@H]7[C@@H](O[C@H]8O[C@H](CO)[C@@H](O)[C@H](N)[C@H]8O)[C@H](N)C[C@H](N)[C@H]7O[C@H]7O[C@H](CN)[C@@H](O)C[C@H]7N)nn6)CC5)c(O)c4c3C2=O)NC(=O)/C(C)=C\C=C\[C@H](C)[C@H](O)[C@@H](C)[C@@H](O)[C@@H](C)[C@H](OC(C)=O)[C@@H]1C.Cl.Cl.Cl.Cl.Cl | > 256 | > 32 | ≥ 32 | > 128 | 2 | > 32 | > 32 | 0.25 | <0.07 | 0.125 | > 32 | <0.133 | 0.078 | 256 | 0.063 | 256 | 256 | > 32 | > 32 | 0.28 | fractional inhibitory concentration index (FICI) (Pseudomonas aeruginosa [18]): 1.03; MIC (Pseudomonas aeruginosa [19]): 1 µg/mL; MIC (Pseudomonas aeruginosa [20]): 0.5 µg/mL; fractional inhibitory concentration index (FICI) (Pseudomonas aeruginosa [21]): 0.28; MIC (Pseudomonas aeruginosa [22]): 32 µg/mL; MIC (Pseudomonas aeruginosa [23]): 128 µg/mL; MIC (Pseudomonas aeruginosa [24]): 0.5 µg/mL; MIC (Pseudomonas aeruginosa [25]): 2 µg/mL; fractional inhibitory concentration index (FICI) (Pseudomonas aeruginosa [26]): 1.03; fractional inhibitory concentration index (FICI) (Pseudomonas aeruginosa [27]): 0.15; viability at 48 h [28]: > 90%; fractional inhibitory concentration index (FICI) (Pseudomonas aeruginosa [29]): 1.03; fractional inhibitory concentration index (FICI) (Pseudomonas aeruginosa [30]): 1.03; fractional inhibitory concentration index (FICI) (Pseudomonas aeruginosa [31]): 0.53; MIC (Pseudomonas aeruginosa [32]): 0.5 µg/mL; MIC (Pseudomonas aeruginosa [33]): 4 µg/mL; fractional inhibitory concentration index (FICI) (Pseudomonas aeruginosa [34]): 0.28
3 | CO[C@H]1/C=C/O[C@@]2(C)Oc3c(C)c(O)c4c(O)c(c(/C=N/N5CCN(Cc6cn(CCCCO[C@@H]7[C@@H](O[C@H]8O[C@H](CO)[C@@H](O)[C@H](N)[C@H]8O)[C@H](N)C[C@H](N)[C@H]7O[C@H]7O[C@H](CN)[C@@H](O)C[C@H]7N)nn6)CC5)c(O)c4c3C2=O)NC(=O)/C(C)=C\C=C\[C@H](C)[C@H](O)[C@@H](C)[C@@H](O)[C@@H](C)[C@H](OC(C)=O)[C@@H]1C.O=C(O)C(F)(F)F.O=C(O)C(F)(F)F.O=C(O)C(F)(F)F.O=C(O)C(F)(F)F.O=C(O)C(F)(F)F | > 256 | > 32 | > 32 | > 128 | 1 | > 32 | > 32 |  |  |  | > 32 |  |  | > 256 |  | 256 | > 256 | > 32 | > 32 | 0.26 | fractional inhibitory concentration index (FICI) (Pseudomonas aeruginosa [18]): 1.03; MIC (Pseudomonas aeruginosa [19]): 1 µg/mL; MIC (Pseudomonas aeruginosa [20]): 1 µg/mL; fractional inhibitory concentration index (FICI) (Pseudomonas aeruginosa [21]): 0.28; MIC (Pseudomonas aeruginosa [22]): 64 µg/mL; MIC (Pseudomonas aeruginosa [23]): 256 µg/mL; MIC (Pseudomonas aeruginosa [24]): 1 µg/mL; MIC (Pseudomonas aeruginosa [25]): 16 µg/mL; fractional inhibitory concentration index (FICI) (Pseudomonas aeruginosa [26]): 1.03; fractional inhibitory concentration index (FICI) (Pseudomonas aeruginosa [27]): 1.03; viability at 48 h [28]: > 90%; fractional inhibitory concentration index (FICI) (Pseudomonas aeruginosa [29]): 1.03; fractional inhibitory concentration index (FICI) (Pseudomonas aeruginosa [30]): 1.03; fractional inhibitory concentration index (FICI) (Pseudomonas aeruginosa [31]): 1.03; MIC (Pseudomonas aeruginosa [32]): 0.5 µg/mL; MIC (Pseudomonas aeruginosa [33]): 4 µg/mL; fractional inhibitory concentration index (FICI) (Pseudomonas aeruginosa [34]): 0.53
4 | CO[C@H]1/C=C/O[C@@]2(C)Oc3c(C)c(O)c4c(O)c(c(/C=N/N5CCN(C)CC5)c(O)c4c3C2=O)NC(=O)/C(C)=C\C=C\[C@H](C)[C@H](O)[C@@H](C)[C@@H](O)[C@@H](C)[C@H](OC(C)=O)[C@@H]1C [RIFAMPIN] | 512 (≈ 622 µM) | > 128 | 8 (≈ 9.72 µM) | 16 (≈ 19.4 µM) | ≤ 0.25 | 8 (≈ 9.72 µM) | 32 (≈ 38.9 µM) |  | 1.5 | 1.5 | 32 (≈ 38.9 µM) |  |  | 32 (≈ 38.9 µM) | 1.5 | 16 (≈ 19.4 µM) | 32 (≈ 38.9 µM) | 1 (≈ 1.22 µM) | 16 (≈ 19.4 µM) |  | 
